The structures appear in SMILES notation.

The target in this assay is T1, IL-17A (Homo sapiens, UniProt Q16552).
T1 sequence (Q16552 24-155): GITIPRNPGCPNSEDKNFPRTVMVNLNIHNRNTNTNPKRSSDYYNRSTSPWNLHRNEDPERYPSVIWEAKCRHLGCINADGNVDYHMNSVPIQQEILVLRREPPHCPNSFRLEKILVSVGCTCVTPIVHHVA
Description: Inhibition of IL-17A induced IL-6 release from dermal fibroblast cell line (HDF cell line assay). The following applies: HDF cells stimulated with IL-17A 50 pM + TNF-α 25 pM; IL-6 release measured by HTRF. It is filed as cell-based. From the text: Inhibition of IL-17A Induced IL-6 Release from Dermal Fibroblast Cell Line
The purpose of this assay is to test the neutralising ability to IL-17 proteins, in a human primary cell system. Stimulation of normal human dermal fibroblasts (HDF) with IL-17 alone produces only a very weak signal but in combination with certain other cytokines, such as TNFα, a synergistic effect can be seen in the production of inflammatory cytokines, i.e. IL-6.
HDFs were stimulated with IL-17A (50 pM) in combination with TNF-α (25 pM). The resultant IL-6 response was then measured using a homogenous time-resolved FRET kit from Cisbio. The kit utilises two monoclonal antibodies, one labelled with Eu-Cryptate (Donor) and the second with d2 or XL665 (Acceptor). The intensity of the signal is proportional to the concentration of IL-6 present in the sample (Ratio is calculated by 665/620×104).
The ability of a compound to inhibit IL-17 induced IL-6 release from human dermal fibroblasts is measured in this assay.
HDF cells (Sigma #106-05n) were cultured in complete media (DMEM+10% FCS+2 mM L-glutamine) and maintained in a tissue culture flask using standard techniques. Cells were harvested from the tissue culture flask on the morning of the assay using TrypLE (Invitrogen #12605036). The TrypLE was neutralised using complete medium (45 mL) and the cells were centrifuged at 300×g for 3 minutes. The cells were re-suspended in complete media (5 mL) counted and adjusted to a concentration of 3.125×10^4 cells/mL before being added to the 384 well assay plate (Corning #3701) at 40 μL per well. The cells were left for a minimum of three hours, at 37° C./5% CO2, to adhere to the plate.
Compounds were serially diluted in DMSO before receiving an aqueous dilution into a 384 well dilution plate (Greiner #781281), where 5 μL from the titration plate was transferred to 45 μL of complete media and mixed to give a solution containing 10% DMSO.
Mixtures of TNFα and IL-17 cytokine were prepared in complete media to final concentrations of TNFα 25 pM/IL-17A 50 pM, then 30 μL of the solution was added to a 384 well reagent plate (Greiner #781281).
L from the aqueous dilution plate was transferred to the reagent plate containing 30 μL of the diluted cytokines, to give a 2.5% DMSO solution. The compounds were incubated with the cytokine mixtures for 5 h at 37° C. After the incubation, 10 μL was transferred to the assay plate, to give a 0.5% DMSO solution, then incubated for 18-20 h at 37° C./5% CO2.
From the Cisbio IL-6 FRET kit (Cisbio #62IL6PEB) europium cryptate and Alexa 665 were diluted in reconstitution buffer and mixed 1:1, as per kit insert. To a white low volume 384 well plate (Greiner #784075) were added FRET reagents (10 μL), then supernatant (10 μL) was transferred from the assay plate to Greiner reagent plate. The mixture was incubated at room temperature for 3 h with gentle shaking (<400 rpm) before being read on a Synergy Neo 2 plate reader (Excitation: 330 nm; Emission: […]).
For `Cc1nonc1C(=O)N[C@H](c1cn2ncc(C(CC(F)F)c3nnc4ccc(F)cn34)cc2n1)C1CCC(F)(F)CC1` (single isomer, unassigned) [Example 12], the IC50 is 31.6 nM. Regarding `Cc1nonc1C(=O)N[C@H](c1cn2ncc(C3CN(C4COC4)CC3C(=O)N3CC(F)(F)C(F)(F)C3)cc2n1)C1CCC(F)(F)CC1` (single isomer, unassigned) [Example 13], the IC50 was 25.1 nM. As for `Cc1nonc1C(=O)N[C@H](c1cn2ncc(C(CC(F)F)c3nnnn3CC(F)(F)F)cc2n1)C1CCC(F)(F)CC1` (single isomer, unassigned) [Example 15, N-[(S)-(4,4-Difluorocyclohexyl)(7-{(1S*)-3,3-difluoro-1-[1-(2,2,2-trifluoroethyl)tetrazol-5-yl]propyl}imidazo[1,2-b]pyridazin-2-yl)methyl]-4-methyl-1,2,5-oxadiazole-3-carboxamide], the figure is 20 nM; as for `Cc1nonc1C(=O)N[C@H](c1cn2ncc(C3CC(F)(F)CCN3C(=O)C34CC(F)(C3)C4)cc2n1)C1CCC(F)(F)CC1` (single isomer, unassigned) [Example 16], 25.1 nM; as for `Cc1nonc1C(=O)N[C@H](c1cn2ncc(C(CC(F)F)C(=O)NCC(F)(F)F)cc2n1)C1CCC(F)(F)CC1` (stereo partly drawn) [Example 1, N-[(S)-(4,4-Difluorocyclohexyl){7-[3,3-difluoro-1-(2,2,2-trifluoroethylcarbamoyl)-propyl]imidazo[1,2-b]pyridazin-2-yl}methyl]-4-methyl-1,2,5-oxadiazole-3-carboxamide], 39.8 nM. For `CNC(=O)[C@H](NC(=O)C(CC(F)F)c1cnn2cc([C@@H](NC(=O)c3nonc3C)C3CCC(F)(F)CC3)nc2c1)C(C)C` (stereo partly drawn) [Example 2, N-{(S)-(4,4-difluorocyclohexyl)[7-(3,3-difluoro-1-{[(1R)-2-methyl-1-(methylcarbamoyl)-propyl]carbamoyl}propyl)imidazo[1,2-b]pyridazin-2-yl]methyl}-4-methyl-1,2,5-oxadiazole-3-carboxamide], the IC50 is 10 nM. As for `CCc1nonc1C(=O)N[C@H](c1cn2ncc(C(CC(F)F)C(=O)NCC(F)(F)F)cc2n1)C1CCC(F)(F)CC1` (stereo partly drawn) [Example 5, N-[(S)-(4,4-Difluorocyclohexyl){7-[3,3-difluoro-1-(2,2,2-trifluoroethylcarbamoyl)-propyl]imidazo[1,2-b]pyridazin-2-yl}methyl]-4-ethyl-1,2,5-oxadiazole-3-carboxamide], the IC50 is 20 nM. Take `CC(C)n1nccc1C(=O)N[C@H](c1cn2ncc(C(CC(F)F)C(=O)NCC(F)(F)F)cc2n1)C1CCC(F)(F)CC1` (stereo partly drawn) [Example 7, N-[(S)-(4,4-Difluorocyclohexyl){7-[3,3-difluoro-1-(2,2,2-trifluoroethylcarbamoyl)-propyl]imidazo[1,2-b]pyridazin-2-yl}methyl]-2-isopropylpyrazole-3-carboxamide]: the IC50 is 25.1 nM. Consider `CC(C)n1ncnc1C(=O)N[C@H](c1cn2ncc(C(CC(F)F)C(=O)NCC(F)(F)F)cc2n1)C1CCC(F)(F)CC1` (stereo partly drawn) [Example 8, N-[(S)-(4,4-Difluorocyclohexyl){7-[3,3-difluoro-1-(2,2,2-trifluoroethylcarbamoyl)-propyl]imidazo[1,2-b]pyridazin-2-yl}methyl]-2-isopropyl-1,2,4-triazole-3-carboxamide], for which the IC50 was 158 nM.

On to `Cc1nonc1C(=O)N[C@H](c1cn2ncc(C3(C(=O)NCC(F)(F)F)CCC(F)(F)CC3)cc2n1)C1CCC(F)(F)CC1` [Example 9, N-[(S)-(4,4-Difluorocyclohexyl){7-[4,4-difluoro-1-(2,2,2-trifluoroethylcarbamoyl)-cyclohexyl]imidazo[1,2-b]pyridazin-2-yl}methyl]-4-methyl-1,2,5-oxadiazole-3-carboxamide], for which the IC50 was 63.1 nM.

Regarding `Cc1nonc1C(=O)NC(c1cn2ncc(C(CC(F)F)C(=O)NCC(F)(F)F)cc2n1)C(C1CC1)C1CC1` (stereo not shown) [Example 11, N-(2,2-Dicyclopropyl-1-{7-[3,3-difluoro-1-(2,2,2-trifluoroethylcarbamoyl)propyl]-imidazo[1,2-b]pyridazin-2-yl}ethyl)-4-methyl-1,2,5-oxadiazole-3-carboxamide], the 50% inhibitory concentration (IC50) was 316 nM.

Turning to `Cc1nonc1C(=O)N[C@H](c1cn2ncc(C3(C(=O)NCC(C)(F)F)CCOCC3)cc2n1)C1CCC(F)(F)CC1` [Example 14, N-[(S)-(4,4-Difluorocyclohexyl){7-[4-(2,2-difluoropropylcarbamoyl)tetrahydropyran-4-yl]imidazo[1,2-b]pyridazin-2-yl}methyl]-4-methyl-1,2,5-oxadiazole-3-carboxamide], the IC50 was 63.1 nM. For the compound `CC(F)(F)CNC(=O)C1(c2cnn3cc([C@@H](NC(=O)c4nonc4C4CC4)C4CCC(F)(F)CC4)nc3c2)CCOCC1` [Example 17, 4-Cyclopropyl-N-[(S)-(4,4-difluorocyclohexyl){7-[4-(2,2-difluoropropylcarbamoyl)-tetrahydropyran-4-yl]imidazo[1,2-b]pyridazin-2-yl}methyl]-1,2,5-oxadiazole-3-carboxamide], the IC50 was 6.31 nM.

The values are drawn from patent US20240140951A1, “IMIDAZOPYRIDAZINE DERIVATIVES AS IL-17 MODULATORS” (UCB Biopharma SRL, priority 2020, published 2024).
